Data as given in patent US20080221093A1, “Metalloprotease inhibitors containing a heterocyclic moiety” (priority 2007, published 2008).

Target: T1, catalytic domain of MMP-13 enzyme (Homo sapiens, UniProt P45452)
T1 construct: stock solution of catalytic domain of MMP-13 enzyme; purchased Invitek (Berlin) 30100812
Test: Assay for determining MMP-13 inhibition (fluorescent substrate)
Assay type: biochemical
Details: compounds named as lower than 100 nM
Description: Assay for Determining MMP-13 Inhibition
The typical assay for MMP-13 activity is carried out in assay buffer comprised of 50 mM Tris, pH 7.5, 150 mM NaCl, 5 mM CaCl2 and 0.05% Brij-35. Different concentrations of tested compounds are prepared in assay buffer in 50 μL aliquots. 10 μL of a 50 nM stock solution of catalytic domain of MMP-13 enzyme (produced by Alantos or commercially available from Invitek (Berlin), Cat.# 30100812) is added to the compound solution. The mixture of enzyme and compound in assay buffer is thoroughly mixed and incubated for 10 min at room temperature. Upon the completion of incubation, the assay is started by addition of 40 μL of a 12.5 μM stock solution of MMP-13 fluorescent substrate (Calbiochem, Cat. No. 444235). The time-dependent increase in fluorescence is measured at the 320 nm excitation and 390 nm emission by automatic plate multireader. The IC50 values are calculated from the initial reaction rates.

IC50 [nM]	SMILES
< 100	O=C1COc2ccc(CNC(=O)c3cnc4ccccc4n3)cc2N1 [3/137]
< 100	O=C1COc2ccc(CNC(=O)C3NC(=O)c4ccccc4N3)cc2N1 (centres unmarked) [Example 1/4]
